Test [1] has as its target T1, AdipoR2 (UniProt Q86V24).
T1 sequence (Q86V24 1-386): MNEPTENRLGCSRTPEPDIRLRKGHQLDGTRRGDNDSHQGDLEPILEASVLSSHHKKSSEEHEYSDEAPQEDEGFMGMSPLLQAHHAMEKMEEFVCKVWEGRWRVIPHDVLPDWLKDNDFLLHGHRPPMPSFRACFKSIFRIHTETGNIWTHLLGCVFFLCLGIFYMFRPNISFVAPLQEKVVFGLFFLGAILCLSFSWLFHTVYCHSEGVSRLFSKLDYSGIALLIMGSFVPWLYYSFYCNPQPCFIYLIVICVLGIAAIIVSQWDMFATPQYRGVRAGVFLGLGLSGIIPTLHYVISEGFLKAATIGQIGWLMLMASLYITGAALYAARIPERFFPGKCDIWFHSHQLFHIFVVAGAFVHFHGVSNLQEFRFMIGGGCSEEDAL
Nature of the test: Competitive FP assay, displacement of probe 1 from AdipoR2. It counts as binding, human. As to the method: (§1) Unlabeled short peptide 3 was titrated against the FITC-labeled peptide and adiponectin receptor mixture. Plates were incubated at room temperature for up to 3 hours or 30 min at different temperatures. FP values were taken and IC50 values were calculated.
(§2) Master mixtures containing fluorescein-labeled probe 1 and adiponectin receptor (AdipoR1 or AdiopR2, 2 µM and probe 1 at 100 nM) in a reaction volume of 19 µl were prepared and loaded to plates. The library compounds (10 µM –0.078 µM, half dilutions) were prepared separately and transferred into the assay plates. The first and last columns of each plate were used as positive and negative control wells. Wells containing the drug only were used as controls to detect auto-fluorescence of the compounds in the total fluorescence assay. After subtraction of the background signal, data was processed and the IC50 values were determined by non-linear least square fitting using SigmaPlot 11.0.
(§3) Given that the present study is a screening study, peptide 3 was chosen as the positive control for cost-efficiency purposes.
(§4) To optimize the FP assay properly, it was necessary to assess the stability of the FP assay. The conditions for the FP assay were established by testing various parameters including incubation temperature, time, TF values, ΔmP values, and DMSO tolerance. […] In summary, the competitive FP binding assay conditions ideal for identifying adiponectin receptor agonists are: i) 2 µM adiponectin receptor, ii) 100 nM probe 1, iii) 5% final DMSO concentration (v/v), and iv) incubation for 30 min at 25°C before reading the plate.
(§5) A pilot screen against the natural product library of 10,000 compounds described above was performed at screening concentrations of 10 µM to 0.078 µM (half serial dilutions) in 5% DMSO (v/v). Controls present in each assay plate consisted of 5% DMSO (negative control) or peptide 3 (positive control).
(§6) We screened a library of 10,000 natural compounds for adiponectin agonists. […] 46 compounds that could generate IC50 curves were identified as initial hits.

Test [2] deals with T2, AdipoR1 (Homo sapiens, UniProt Q96A54).
T2 construct: The cDNAs encoding full-length of AdipoR1 or AdipoR2 were then sub-cloned into the mammalian expression vector pBEX and pcDNA3.1–Myc-His(+); His (C); Myc (C); made in house; host or cells: CHO cells
T2 sequence (Q96A54 1-375): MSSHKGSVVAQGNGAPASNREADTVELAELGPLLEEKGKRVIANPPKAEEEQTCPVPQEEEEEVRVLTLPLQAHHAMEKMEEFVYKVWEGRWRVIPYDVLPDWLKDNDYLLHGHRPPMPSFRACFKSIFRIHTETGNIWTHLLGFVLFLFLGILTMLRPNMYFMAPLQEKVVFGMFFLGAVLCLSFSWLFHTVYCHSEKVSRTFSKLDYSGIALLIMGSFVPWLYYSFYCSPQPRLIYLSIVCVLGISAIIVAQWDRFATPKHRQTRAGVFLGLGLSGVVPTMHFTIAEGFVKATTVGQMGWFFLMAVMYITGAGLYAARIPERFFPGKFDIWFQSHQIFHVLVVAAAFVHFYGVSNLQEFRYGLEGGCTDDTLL
The test can be described thus: Competitive FP assay, displacement of probe 1 from AdipoR1. The class given is binding. Here is the method:
as §1, §2, §3, §4, §5, §6

In test [3] the test system is MCF-7 cells. The test can be described thus: Cell viability assay (CellTiter-Blue) in MCF-7 cells. The class given is cell-based. Particulars: Homo sapiens, read-out: IC50 (µM) MCF-7 cells, cell viability. Here is the method: (§7) All cell lines were obtained from the American Type Culture Collection (ATCC). MCF-7 and MDA-MB-231 cells were maintained in DMEM containing 10% fetal bovine serum and supplied with 1% penicillin/streptomycin. All cells were maintained in a 5% CO2 atmosphere at 37°C.
(§8) The effects of the lead compounds on cell proliferation were tested in MCF-7 and MDA-MB-231 cells. Cells were grown to 80% confluence, harvested and aliquoted into 384-well plates in a total volume of 45 µl per well. The outer wells were inoculated with sterile water to minimize evaporation from the sample wells. Cells were allowed to attach overnight and 5 µl culture media containing either vehicles or drug were added. Cell proliferation was evaluated using CellTilter-Blue reagent (Promega, China) according to manufacturer’s instructions after 72-h incubation. Fluorescence was measured with an excitation at 530 nm and emission at 590 nm. After background subtraction, cell viability values were normalized to vehicle controls and expressed as percentage of the mean of the relative vehicle controls.
(§9) To further confirm the agonistic activity of hit compounds, MDA-MB-231 and MCF-7 cells were treated with different concentrations of g-Ad or drug (20 µM to 1.2 nM) for 72 hours and cell viability was measured. Thus, four compounds (arctiin, (-)-arctigenin, matairesinol and gramine) that show agonistic activity against adiponectin receptor 1 and four compounds (deoxyschizandrin, taxifoliol, syringing and parthenolide) that show agonistic activity against adiponectin receptor 2 were identified.

The test system of test [4] is AMPK phosphorylation (AdipoR1 signaling) in MDA-MB-231 cells. Nature of the test: Western blot of AMPK phosphorylation in MDA-MB-231 cells. The class given is cell-based, human. Conditions: MDA-MB-231 cells treated at IC50 concentration for 6 h. Here is the method: (§10) Cells were grown to 80% confluence, harvested and aliquoted into 100 mm dishes in serum free media. Cells were allowed to attach overnight and then the serum free media was removed and then cells were washed in PBS twice. Different doses of compounds were prepared in the normal media and added to different dishes for an additional 6 h. Cells were washed 3 times with ice-cold PBS and cell lysates were prepared by scraping cells into lysis buffer A (RIPA buffer, 2 mM dithiothreitol […], 1×Halt protease inhibitor cocktail (Thermo scientific), and 1×Halt phosphatase inhibitor cocktail (Thermo scientific)). The cells were allowed to swell on ice (5 min), after which the homogenate was centrifuged. The supernatants were transferred to fresh tubes and protein concentrations were determined using the Bio-Rad protein assay (Bio-Rad Laboratories, Inc.) per manufacturer’s instructions. Aliquots of the cell lysates were stored at −80°C.
(§11) Equal amounts of total protein (50 µg) were subjected to electrophoresis (10% tris-HCl, 1.0 mm gels) and transferred to nitrocellulose membranes. Membranes were blocked in TBS containing 0.05% Tween 20 (TBST) and 5% nonfat milk or 5% BSA for 1 hour at room temperature. Appropriately diluted primary antibodies were incubated in TBST/5% nonfat milk or TBST/5% BSA for 2 h at room temperature or overnight at 4 °C. Membranes were washed in TBST three times for 15 min each. Appropriately diluted secondary antibodies were incubated in superblock blocking buffers (Thermo Scientific) for 1 h at room temperature. Membranes were washed in TBST three times for 15 min. Proteins were detected by Amersham™ ECL plus western blotting detection system (GE healthcare). The following antibodies were used: anti-AdipoR1 M18, anti-AdipoR2 C12 (Santa Cruz Biotechnology, Santa Cruz, CA), anti-p-AMPKα(T172), anti-AMPKα, and anti-β-actin (Cell Signaling, Danvers, MA).
(§12) It is well established that adiponectin activates AMPK and p38 MAPK through AdipoR1 or PPARα through AdipoR2 to mediate its downstream signaling cascades, [9], [12], [14]. […] The levels of phosphorylation of AMPK and phosphorylation of PPARα were examined and the relative expression levels of the phospho-protein to the total expression of protein levels were quantified using ImageJ software (NIH) ( Fig. 3 ).
(§13) Figure 3 Effects of hit compounds on adiponectin receptor signaling pathways. […] A total 50 µg of cell lysate was loaded to each lane. Western blot was performed follow the protocol in materials and methods section.

The subject of test [5] is PPARα phosphorylation (AdipoR2 signaling) in MCF-7 cells. Nature of the test: Western blot of PPARα phosphorylation in MCF-7 cells. It counts as cell-based, human. Conditions: MCF-7 cells treated at IC50 concentration for 6 h. As to the method:
as §10, §11, §12, §13
Background: A western blot detects proteins with antibodies after separation by electrophoresis.

For test [6], the system named is MDA-MB-231 cells. Nature of the test: Cell viability assay (CellTiter-Blue) in MDA-MB-231 cells. Conditions: Homo sapiens, read-out: IC50 (µM) MDA-MB-231 cells, cell viability. The class given is cell-based. Here is the method:
as §7, §8, §9

The mark [7] stands for this setting: primary screen, 2 µM receptor, 100 nM probe 1, 30 min, 25°C, read-out: IC50 vs AdipoR1 (µM) Primary screen.
The mark [8] stands for this setting: validation, 2 µM receptor, 100 nM probe 1, 30 min, 25°C, read-out: IC50 vs AdipoR1 (µM) Validated.
[9] abbreviates: primary screen, 2 µM receptor, 100 nM probe 1, 30 min, 25°C, read-out: IC50 vs AdipoR2 (µM) Primary screen.
Where [10] appears, read: validation, 2 µM receptor, 100 nM probe 1, 30 min, 25°C, read-out: IC50 vs AdipoR2 (µM) Validated.

Where two headings read alike, the source gives them in different places. Where a SMILES comes first, the peptide text is derived from it. [ ]: non-standard residue; d: D form. Nva = CCC[C@H](N)C(=O)O Some results are limits rather than exact numbers.

Six molecules from paper PMC3653934, “Identification of Adiponectin Receptor Agonist Utilizing a Fluorescence Polarization Based High Throughput Assay” (PLoS ONE, 2013) can be followed below.

Regarding `CCC[C@H](NC(=O)[C@@H]1CCCN1C(=O)[C@@H](NC(=O)[C@H](N)CC(N)=O)[C@@H](C)CC)C(=O)N[C@@H](CC(C)C)C(=O)N[C@@H](Cc1ccc(O)cc1)C(=O)N[C@H](CO)C(=O)N[C@@H](Cc1ccccc1)C(=O)N[C@@H](C)C(=O)N[C@H](CO)C(N)=O` [Peptide 3, H-DAsn-Ile-Pro-Nva-Leu-Tyr-DSer-Phe-Ala-DSer-NH2, reference compound] (H-[dN]IP[Nva]LY[dS]FA[dS]-NH2), the IC50 in test [1] (positive control validation, titrated against probe 1 – AdipoR2 mixture, read-out: IC50 against AdipoR2, competition with probe 1) was determined as 2.46 ± 0.25 µM.
As to `O=c1cc(-c2ccccc2)oc2cc(O)cc(O)c12` [Compound 8, Chrysin], the IC50 in test [2] (setting [7]) was greater than 5 µM; in test [2] (setting [8]) it was greater than 5 µM; in test [1] (read-out: IC50 vs AdipoR2 (µM) Primary screen, primary screen, 2 µM receptor, 100 nM probe 1, 30 min, 25°C), 4.9 µM; in test [1] (read-out: IC50 vs AdipoR2 (µM) Validated, validation, 2 µM receptor, 100 nM probe 1, 30 min, 25°C) it was greater than 5 µM. The “IC50 vs AdipoR2 (µM) Validated” value in test [1] (validation, 2 µM receptor, 100 nM probe 1, 30 min, 25°C) was “failed in the validation”.
Take `COc1cc(/C=C/CO)cc(OC)c1O[C@@H]1O[C@H](CO)[C@@H](O)[C@H](O)[C@H]1O` [Compound 5, Syringin]: the IC50 in test [2] was greater than 5 µM; in test [2] (read-out: IC50 vs AdipoR1 (µM) Validated, validation, 2 µM receptor, 100 nM probe 1, 30 min, 25°C), greater than 5 µM; in test [3] (MCF7, 72 h), 6.8 ± 0.8 µM; in test [1] (setting [9]) it was 4.6 µM; in test [1] (setting [10]) it was 4.5 ± 0.5 µM; in test [6] (MDA-MB-231, 72 h), greater than 10 µM. The “Effect on AMPK phosphorylation” value in test [4] was “decreased”. Also, in test [5], the “Effect on PPARα phosphorylation level” value is on record as “increased”.
For the molecule `O=C1c2c(O)cc(O)cc2O[C@H](c2ccc(O)c(O)c2)[C@H]1O` [Compound 6, Taxifoliol], the IC50 is 4.4 ± 0.5 µM in test [3] (MCF7, 72 h, 20 µM to 1.2 nM) and greater than 10 µM in test [6] (MDA-MB-231, 72 h, 20 µM to 1.2 nM). The “Effect on AMPK phosphorylation” value in test [4] is “decreased”. Further, the “Effect on PPARα phosphorylation level” value in test [5] is “increased”.
Take `COc1cc(C[C@H]2C(=O)OC[C@@H]2Cc2ccc(OC)c(OC)c2)ccc1O` [Compound 2, (-)-Arctigenin]: the half-inhibitory concentration (IC50) was 2.6 µM in test [2] (setting [7]); 2.2 ± 0.8 µM in test [2] (setting [8]); greater than 10 µM in test [3] (MCF7, 72 h); greater than 5 µM in test [1] (setting [9]); greater than 5 µM in test [1] (setting [10]); 4.5 ± 0.4 µM in test [6] (MDA-MB-231, 72 h). Besides, the “Effect on AMPK phosphorylation” value in test [4] was “elevated”. Also, the “Effect on PPARα phosphorylation level” value in test [5] was “inhibited”.

B1: g-Ad: recombinant carboxyl-terminal globular domain of adiponectin with C-terminal His-tag, produced in BL21(DE3) cells; positive control (protein)
chain: GEGAYVYRSAFSVGLETYVTIPNMPIRFTKIFYNQQNHYDGSTGKFHCNIPGLYYFAYHITVYMKDVKVSLFKKDKAMLFTYDQYQENNVDQASGSVLLHLEVGDQVWLQVYGEGERNGLYADNDNDSTFTGFLLYHDTN
modifications: C-terminal His-tag left out
With B1, in test [2] (positive control validation, titrated against probe 1 – AdipoR1 mixture, read-out: IC50 against AdipoR1, competition with probe 1), the IC50 was found to be 3.4 ± 0.7 µM.

The term IC50 denotes the concentration needed to halve the response being measured.
